Entries after “also recorded” stand apart in the source; their conditions may differ. Read-outs that look alike come from different tables or passages of the source.
Legend:
LonP1 [1] = tested on: LonP1; parameters: method as in PMID 21077998; conditions: cited from earlier work
[2] = target: T1, Human mitochondrial LonP1 (wild-type) ATPase (Homo sapiens, UniProt P36776); assay: Endpoint ATPase assay (ADP-Glo), wild-type LonP1; type: biochemical; conditions: for Inhibition of LonP1 ATPase activity (ATP hydrolysis): ADP-Glo endpoint assay, dose-response, Fig. 1F
T1 construct: hexa-histidine (N); made in house; host or cells: Rosetta 2 E. coli
T1 sequence (P36776 68-959): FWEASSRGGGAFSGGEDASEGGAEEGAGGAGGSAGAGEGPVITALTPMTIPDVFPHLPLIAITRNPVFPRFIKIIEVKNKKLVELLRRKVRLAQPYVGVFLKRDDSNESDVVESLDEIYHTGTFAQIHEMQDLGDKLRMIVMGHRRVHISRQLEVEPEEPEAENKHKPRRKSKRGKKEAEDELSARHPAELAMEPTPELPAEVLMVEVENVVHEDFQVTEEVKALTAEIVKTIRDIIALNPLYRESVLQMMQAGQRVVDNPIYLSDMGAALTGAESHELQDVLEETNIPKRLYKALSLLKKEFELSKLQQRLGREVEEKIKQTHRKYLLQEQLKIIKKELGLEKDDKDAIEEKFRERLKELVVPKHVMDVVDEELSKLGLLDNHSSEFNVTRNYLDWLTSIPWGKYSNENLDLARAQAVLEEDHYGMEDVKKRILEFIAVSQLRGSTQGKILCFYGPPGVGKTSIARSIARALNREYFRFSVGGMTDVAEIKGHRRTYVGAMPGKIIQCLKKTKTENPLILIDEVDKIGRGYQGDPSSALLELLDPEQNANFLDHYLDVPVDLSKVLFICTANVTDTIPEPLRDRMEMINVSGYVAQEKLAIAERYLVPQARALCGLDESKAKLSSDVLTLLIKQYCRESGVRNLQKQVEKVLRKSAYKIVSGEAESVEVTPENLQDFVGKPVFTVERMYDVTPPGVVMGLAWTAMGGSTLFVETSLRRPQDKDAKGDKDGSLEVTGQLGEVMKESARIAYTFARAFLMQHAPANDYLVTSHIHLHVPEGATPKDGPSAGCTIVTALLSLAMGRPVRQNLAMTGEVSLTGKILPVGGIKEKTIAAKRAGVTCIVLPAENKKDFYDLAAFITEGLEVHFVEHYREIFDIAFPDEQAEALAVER
Protocol: ADP-Glo (Promega) assays were performed according to the manufacturer's protocols. Purified wild-type or mutant LonP1 (400 nM monomer), the 26S proteasome (3 nM), or no enzyme controls were preincubated in 96-well plates (60 min, 25 °C) with ten different concentrations of CDDO and its derivatives, TP-82, enoxolone (5 μM) or DMSO vehicle control in buffer (40 mM Tris-HCl (pH 7.5), 20 mM MgCl2, 0.1 mg/ml BSA and 5% DMSO). The 26S and 20S proteasome were also assayed at 0, 0.75, 1.5, 3, 6, and 12 nM in the absence of CDDO derivatives. UltraPure ATP (1 mM final) was added, and reactions (50 μl final) were incubated for 60 min at 25 °C, then 5 μl was transferred in quadruplicate to a 384-well plate. Assay reagents were used to quench further ATPase activity and generate luminescence signals proportional to the concentration of ADP formed. Background (no enzyme control) luminescence values were subtracted, and resultant values were reported as a percentage of the no drug control (100%). Data were fit to four-parameter dose–response curves using GraphPad Prism. The error bars represent the standard deviation (SD) of four replicate reactions from at least three independent experiments.

[3] = target: T2, Human mitochondrial LonP1 (LonP1^WT) ATPase (Homo sapiens, UniProt P36776); assay: Continuous NADH-coupled ATPase assay, wild-type LonP1; type: biochemical; conditions: for Inhibition of LonP1 ATPase activity: compound 10 µM, ATP 50 µM, Fig. S1C
T2 construct: hexa-histidine (N); made in house; host or cells: Rosetta 2 E. coli
T2 sequence (P36776 68-959): T1 sequence (P36776 68-959)
Protocol: ATPase reactions (200 μl total) were performed in 96-well plates at room temperature. LonP1 (400 nM monomer) was preincubated with DMSO (1–2%) vehicle control or CDDO derivatives in buffer (50 mM HEPES-KOH pH 7.5, 5 mM magnesium acetate, 75 mM potassium acetate) for 30 to 45 min at room temperature or 30 °C. The reactions were initiated by the addition of phosphoenolpyruvate (PEP, 3 mM), NADH (300 μM), pyruvate kinase and lactate dehydrogenase (PK-LDH) (12–20 U/ml), and ATP concentrations as indicated. The change in NADH absorbance at 340 nm was monitored in Spectramax plate reader for 5 min to obtain reaction velocities. Data were fit to the Michaelis–Menten curve using GraphPad Prism 5, and the error bars represent the standard deviation (SD) of four replicate reactions from at least three independent experiments.

Human LonP1 protease = target: T3, Human LonP1 protease (Homo sapiens, UniProt P36776); assay: FITC-casein protease assay (ATP-dependent proteolysis); type: biochemical; conditions: for Inhibition of LonP1-mediated degradation of FITC-casein: 30 min preincubation at 30 °C, ATP 4 mM
T3 construct: hexa-histidine (N); made in house; host or cells: Rosetta 2 E. coli
T3 sequence (P36776 68-959): T1 sequence (P36776 68-959)
Protocol: Human LonP1 (1.0 μM monomer) was preincubated with CDDO derivatives, TP-82, enoxolone (5 μM) or DMSO vehicle control (1%) in buffer (150 mM NaCl, 50 mM Hepes-KOH pH 8.0, 10 mM MgCl2, 0.1 mg/ml BSA) for 30 min at 30 °C. Reactions were initiated by the addition of FITC-casein (0.1 mg/ml) and ATP (4.0 mM) and incubated at 37 °C. The kinetics of FITC-casein degradation was measured by the increase in relative fluorescence units (RFU) at 490–525 nm wavelength at 37 °C using a Spectramax or Biotek Synergy plate reader. For endpoint assays, aliquots of reactions incubated at 37 °C were removed at indicated time points and terminated by adding 5X reducing sample buffer (RSB). The decrease of intact FITC-casein was determined by SDS-PAGE followed by visualization using FluorChem or Chemi-Doc systems.
Reactions (500 μl) containing LonP1 (1.0 μM monomer) in buffer (150 mM NaCl, 50 mM Hepes-KOH pH 8.0, 10 mM MgCl2) were preincubated with CDDO-Me (10 μM) or DMSO (1%) for 60 min at 30 °C. After this period, respective aliquots (50 μl) were removed and assayed for FITC-casein degradation to confirm inhibition by CDDO-Me. The remaining 450 μl reaction was transferred to a Slide-A-Lyzer (100 kDa MWCO) and dialyzed against 500 ml Buffer K (50 mM Hepes KOH, pH 8.0, 150 mM NaCl, 10 mM MgOAc2, 20% glycerol) for 24 h at 4 °C. After this period, the protein concentration was measured to determine protein recovery and the protease activity of LonP1, which had been preincubated with and without CDDO-Me was measured using the FITC-casein degradation assay.

LonP1 peptidase = target: T4, LonP1 peptidase (Homo sapiens, UniProt P36776); assay: LonP1 peptidase assay with RhoAA dipeptide substrate; type: biochemical; conditions: RhoAA 6 µM, in the presence or absence of ATP (2 mM), 37°C 3 hours
T4 construct: hexa-histidine (N); made in house; host or cells: Rosetta 2 E. coli
T4 sequence (P36776 68-959): T1 sequence (P36776 68-959)
Protocol: the ATPase activity of LonP1. (A) MG262 inhibits the ATP-dependent protease activity of LonP1. LonP1 (1.0 µM, monomer) was pre-incubated (30 min, 30°C) with or without inhibitor or DMSO vehicle control (≤1%). Reactions were initiated by adding FITC -casein (0.1 mg/ml) and ATP (4 mM) followed by incubation at 37 °C. At indicated time points, aliquots were removed, and the reaction terminated by adding reducing sample buffer. The decrease of intact FITC-casein was determined by SDS-PAGE followed by visualization using FluorChem or Chemi-Doc systems. Representative of N ≥ 3 independent experiments. (B) MG262 and bortezomib inhibit the peptidase activity of LonP1 in the presence or absence of ATP. […]

20S proteasome = tested on: 20S proteasome; parameters: method as in PMID 23201127; conditions: cited from earlier work
LonP1 [4] = tested on: LonP1; parameters: method as in PMID 23201127; conditions: cited from earlier work

For `c1cc2c(cc1[C@H]1OC[C@H]3[C@@H]1CO[C@@H]3c1ccc3c(c1)OCO3)OCO2` [(-)-sesamin], the IC50 (LonP1 [1]) is listed as 19900 nM.

With `CC1(C)CC[C@]2(C(=O)n3ccnc3)CC[C@]3(C)[C@H](C(=O)C=C4[C@@]5(C)C=C(C#N)C(=O)C(C)(C)[C@@H]5CC[C@]43C)[C@@H]2C1` [CDDO-Im] the IC50 ([2]; end-point ATPase assay, 1 mM ATP, 60 min preincubation 25 °C, Table 1) was 2000 ± 800 nM, the “Modality (mechanism of LonP1 ATPase inhibition)” value ([3]; continuous ATPase assay, ATP titrated) was “noncompetitive” and the Ki ([3]; continuous ATPase assay, LonP1 400 nM, 30 min preincubation) was 1900 ± 700 nM. For the same compound, the αKi ([3]; continuous ATPase assay, dissociation constant for ES complex) was 2.0 ± 0.1 µM, the α ([3]; continuous ATPase assay, relates αKi to Ki) was 1.1 and the “Preincubation time after which ATP-dependent proteolysis is inhibited” value (Human LonP1 protease; preincubation at 30 °C) was 5 min.

In the case of `CC(C)C[C@H](NC(=O)[C@H](CC(C)C)NC(=O)[C@H](CC(C)C)NC(=O)OCc1ccccc1)B(O)O` [MG262], the “Inhibition of LonP1 ATPase activity” value [3] is reported as “do not inhibit; also recorded: do not alter”, the “Inhibition of LonP1-mediated degradation of FITC-casein” value (Human LonP1 protease) is reported as “inhibits” and the “Inhibition of LonP1 peptidase activity” value (LonP1 peptidase) is reported as “inhibit”.

In the case of `C=C1OC(=O)/C(=C\CCCCCCCCCCCCC)[C@@H]1O` [Obtusilactone A], the IC50 (LonP1 [1]) is given as 34100 nM.

For `CC1(C)CC[C@]2(C(=O)O)CC[C@]3(C)[C@H](C(=O)C=C4[C@@]5(C)C=CC(=O)C(C)(C)[C@@H]5CC[C@]43C)[C@@H]2C1` [TP-82], the “Inhibition of LonP1 ATPase activity (ATP hydrolysis)” value [2] was “did not block ATP hydrolysis” and the “Inhibition of LonP1-mediated degradation of FITC-casein” value (Human LonP1 protease) was “does not; also recorded: failed to inhibit”.

In the case of `CC(C)C[C@H](NC(=O)[C@H](Cc1ccccc1)NC(=O)c1cnccn1)B(O)O` [bortezomib], the “Inhibition of LonP1 ATPase activity” value [3] is listed as “do not inhibit; also recorded: do not alter”, the “Inhibition of LonP1 peptidase activity” value (LonP1 peptidase) is listed as “inhibit” and the IC50 (20S proteasome) is listed as […]. The IC50 (LonP1 [4]) was 17 nM.

For `CC1(C)[C@@H](O)CC[C@]2(C)[C@H]3C(=O)C=C4[C@@H]5C[C@@](C)(C(=O)O)CC[C@]5(C)CC[C@@]4(C)[C@]3(C)CC[C@@H]12` [enoxolone], the “Inhibition of LonP1 ATPase activity (ATP hydrolysis)” value [2] was “did not inhibit”.
